The text below walks through data of patent US11013724B2, “Glutaminase inhibitors” (University of Pittsburgh—Of the Commonwealth System of …, priority 2014, dated 2021).

Test [1] concerns the target recombinant GAC (human GAC, residues 72-603). The test is described as follows: GAC enzyme assay (biochemical assay, glutamate dehydrogenase-coupled, absorbance at 340 nm). Conditions: relative to prior art compound BPTES. As for the experimental part: (§1) Cell culture media and serum were obtained from Invitrogen (Carlsbad, Calif.). All other reagents were obtained from Fisher Scientific (Pittsburgh, Pa.) or Sigma Aldrich (St. Louis, Mo.). MDA-MB-231 cells were purchased from ATCC (Manassas, Va.), and were cultured at 35° C., in 5% CO2, using RPMI-1640 media supplemented with 10% FBS, unless otherwise specified. Recombinant GAC was expressed in E. coli and purified. Briefly, human GAC (residues 72-603) was cloned into the pET28a vector from Novagen, and was expressed as a His6-tagged fusion protein in E. coli. It was then purified by ion exchange and size exclusion chromatography.
Biochemical assays: The GAC inhibitors were solvated in DMSO. Assay vessels were charged with 1 μL of inhibitor in order to effect the reported final concentration. To each vessel was added 95 μL of an aqueous solution containing 48 mM Tris-acetate (pH 8.6), 21 mM glutamine, and 50 nM recombinant GAC. Fifteen μL of either water or 1 M potassium phosphate, pH 8.2, were added to the mixture to begin the reaction. […] The absorbance of both the second and third reactions was recorded at […]. The third reaction was treated as a baseline, and its absorbance was subtracted from that of the second reaction prior to further data analysis. […] Dose curves and IC50 values were determined in Sigmaplot, using the built-in four parameter logistic function.

Test [2] concerns MDA-MB 231 cancer cells. Put plainly: MDA-MB-231 cell proliferation assay (cell counting on 6th day). The class given is cell-based. Particulars: relative to prior art compound BPTES. As for the experimental part:
as §1
Cell assays: MDA-MB-231 cells were cultured in RPMI-1640 media supplemented with 10% FBS. Prior to initiating the assay, cells that were 70-80% confluent were trypsinized. These cells were diluted, counted, and dispensed into 12-well culture plates at a density of 2×10^4 cells per well. Each well was then brought to 1 mL of media, total. The cells were allowed to adhere to the wells overnight, at which point they were recounted (day 0 of the assay). […] Cells were counted on the 6th day of culture. […] Cells were then counted on a hemocytometer, with 3 readings taken and averaged per sample. […] Dose curves and IC50 values were determined in Sigmaplot, using the built-in four parameter logistic function.

For `O=C(Cc1ccccc1)Nc1nnc(OC2CCN(c3nnc(NC(=O)Cc4ccccc4)s3)CC2)s1` [UPGL00019, 2-Phenyl-N-{5-[1-(5-phenylacetylamino-[1,3,4]thiadiazol-2-yl)-piperidin-4-yloxy]-[1,3,4]thiadiazol-2-yl}-acetamide], the “IC50 in the GAC enzyme assay compared directly to BPTES” value in test [1] was “one order of magnitude better”. Also, the “IC50 in inhibiting the proliferation of MDA-MB 231 cancer cells in vitro compared to BPTES” value in test [2] is “better than BPTES by 2 orders of magnitude”.
